Reference: patent US9708247B2, “Modulators of the eIF2alpha pathway” (The Regents of the University of California, priority 2013, dated 2017)
Read-outs that look alike come from different tables or passages of the source.

Experiments:
[1] = mouse, in vivo, ip, 5 mg/kg
Procedure: Intra-peritoneal (ip), and intra-venous (iv) routes of administration were performed on 6-7 wk old female CD-1 mice (Harlan Laboratories). Animals received a single, 5 mg/kg dose in groups of three mice/compound/route of administration. […] Blood (80 ul) was collected from the saphenous vein at intervals post-dosing (20 min, 1 h, 3 h, 8 h, 24 h) in EDTA containing collection tubes (Sarstadt CB300) and plasma was prepared for analysis. Compounds were detected by time-of-flight mass spectroscopy.

RPMI8226 cells = assay: Polysome gradient analysis in RPMI8226 cells; type: cell-based, human; settings: ER-stressed (5 μg/ml tunicamycin) and un-stressed cells, 1 μM ISRIB
global translation = assay: Metabolic labeling (35S-methionine incorporation) in HEK293T cells; type: cell-based, human; settings: 100 nM thapsigargin plus 200 nM ISRIB
Procedure: HEK293T cells were seeded on 12 well plates, allowed to recover overnight and treated for the indicated times with the indicated compounds. The cells were subsequently switched to media lacking methionine and cysteine supplemented with the indicated compounds and 50 μCi of ^35S-methionine (Perkin Elmer) for 20 min. Cells were lysed by addition of SDS-PAGE loading buffer. Lysates were sonicated and equal amounts were loaded on SDS-PAGE gels (BioRad). The gel was dried and radioactive methionine incorporation was detected by exposure to a phosphor-screen and visualized with a Typhoon 9400 Variable Mode Imager (GE Healthcare).

ATF4 luciferase reporter = ATF4 luciferase reporter assay (Cell-luc) in HEK293T cells; type: cell-based, human
Text: FIGS. 1A-1C. […]
To identify inhibitors of PERK signaling, we engineered a reporter that allows monitoring of PERK activation in living cells. To this end, we constructed a retroviral vector containing the open-reading frame of firefly luciferase fused to the 5′UTR of ATF4 mRNA (FIG. 1A), which contains two short open-reading frames (uORFs) that control ATF4 translation in a stress-dependent manner. After infection, we established a HEK293T cell line harboring the stably integrated reporter. […] This format was used to screen 106,281 compounds covering a wide chemical space. We identified 460 hits (0.43%) (FIG. 1C), which were further validated in an 8-point dose-response assay using the same reporter. We further triaged the compounds by discarding inhibitors that also affected the IRE1 branch of the UPR using an XBP1-luciferase splicing reporter. […] We next used an orthogonal secondary screen that employed a different reporter (bi-cistronic ATF4-dGFPIRES-mCherry) stably integrated into a different cell line (U20S cells). The read-out of this latter screen was microscopy-based, which allowed us to simultaneously assess acute toxicity by cell counting, further reducing the number of viable hits to 77. As a tertiary screen, we tested compounds for their ability to inhibit ER stress-elicited induction of endogenous ATF4 by Western blot analysis. Twenty-eight compounds passed this test and were analyzed further.
ATF4 reporters were constructed by fusing the human full-length ATF4 5′-UTR (NCBI Accession BC022088.2) in front of the firefly luciferase (FLuc) or a destabilized eGFP (dEGFP) coding sequences lacking the initiator methionine.
The ATF4-FLuc reporter was generated by cloning a PCR-product containing the ATF4 full-length 5′-UTR (from +1 position a the transcription start site down to one nucleotide after the terminator codon of the second uORF) flanked by KpnI/XhoI and BglII sites at the 5′ and 3′ ends, respectively, into the KpnI-BglII sites of pCAX-F-XBP1-Luc. The resulting construct, pCAX-ATF4-FLuc, was then digested with BamHI, blunted with T4 DNA polymerase, and then digested with XhoI. The resulting fragment was then subcloned into the retroviral expression vector pLPCX (Clontech) after digesting it with HindIII, blunting with T4 DNA polymerase and then digesting with XhoI to generate pLPCX-ATF4-FLuc (DAA-312). DAA-312 was used to produce recombinant retroviruses using standard methods and the resulting viral supernatant was used to transduce HEK293T cells, which were then subsequently selected with puromycin to generate a stable cell line employed in the primary screen.
HEK293T cells carrying the ATF4 luciferase reporter were plated on poly-lysine coated 384 well plates (Greiner) at 30,000 cells per well. […] Luminescence was measured using One Glo (Promega) as specified by the manufacturer. […] Thus, these were considered unique to the PERK branch and were cherry-picked for further analysis.

With O=C(COc1ccc(Cl)cc1)NC1CCC(NC(=O)COc2ccc(Cl)cc2)CC1 (stereo not drawn) [ISRIB] the AUC [1] was 3318 ng·h/mL, the CLt [1] was 8.318 mL/h and the F % [1] was 13.8%. The T½ [1] was 8.43 h, the Vd [1] was 96.0261 mL and the “translation in multiple myeloma cells” value (RPMI8226 cells) was “increased translation”. The “effect on thapsigargin-induced drop in translation” value (global translation) was “abolished”, the IC50 (ATF4 luciferase reporter; cultured HEK293T cells, 2 μg/ml tunicamycin, 7 h, synthesized isomers, read-out: IC50, inhibition of the ATF4-luciferase reporter) was 5 nM and the IC50 (ATF4 luciferase reporter; screening library sample, likely a mixture of the two stereoisomers, read-out: IC50 of the library compound) was 40 nM.
